This is an account of results in patent US20090247520A1, “INHIBITORS OF ANTIGEN RECEPTOR-INDUCED NF-kappa B ACTIVATION” (The Burnham Institute for Medical Research, priority 2008, published 2009).

In experiment [1] the test system is CD40-induced NF-κB reporter gene activity. Kind of experiment: NF-κB reporter in HEK293-NF-κB-luc cells over-expressing CD40. Type of experiment: cell-based. The following applies: CID-2858522 4 μM, IKK inhibitor 10 μM, PKC inhibitor 1 μM. The procedure:
FIGS. 3 (A-F) HEK293-NF-κB-luc cells were pretreated with CID-2858522 (4 μM), IKK inhibitor, BMS-335541 (10 μM), or PKC inhibitor, Bisindolylmaleimide I (1 μM) for 2 hrs and then transfected with plasmids encoding CD4/TLR4 (A), CD40 (B), NOD1 (C), NOD2 (D), cIAP2-MALT1 (E), or XIAP and TAB (F), or pcDNA as control (compounds were not removed). After 48 hrs, luciferase activity was measured expressing data as fold increase relative to unstimulated cells (mean±SD; n=3). (G-H) HEK293-NF-κB-luc cells were pretreated with CID-2858522 (4 μM), or IKK inhibitor, BMS-335541 (10 μM) for 2 hrs and then cultured with 2 μM doxorubicin (G) or 16 μM retinoic acid (H). After 48 hrs, luciferase activity was measured as above.
Counter Screening and Secondary Assays. To counter-screen for inhibitors of the TNF pathway, HEK293-NFκB-Luc cells were seeded at 10^5 cells per well in 90 μL medium in white 96-well plates (Greiner Bio-One) and cultured overnight, before adding compounds (5 μL in medium) to cells. After 2 h incubation, 5 μL TNF (200 ng/mL) (R&D Systems) was added (final concentration 10 ng/mL) and cells were incubated for 16 h. Luciferase activity was measured using Britelite kit (Perkin Elmer). To counter-screen for inhibitors of NF-κB induced by TLR4, CD40, NOD1, NOD2, cIAP2/MALT, or XIAP/TAB, the 293-NF-κB-luc cells cultured in 96 well plates as above were pretreated with compounds for 2 h and then transfected using Lipofectamine 2000 with various plasmids including pcDNA3 (“empty vector” control) or plasmids encoding CD4-TLR4, CD40, NOD1, NOD2, cIAP2/MALT, XIAP/TAB, using 0.2 μL of transfection reagent containing 100 ng DNA per well. Cells were cultured in medium containing CID-2858522 or other compounds and luciferase activity was measured 48 h later. […] Reactions were then initiated by addition of 50 μL 160 nM ATP (Sigma) in PBS and luciferase activity was measured 2 h later using a luminometer (LJL Biosystems, Sunnyvale, Calif.).

For experiment [2], the system named is PMA/Ionomycin-induced IL-2 production. In words: IL-2 production by PMA/Ionomycin-stimulated Jurkat T cells (ELISA). Type of experiment: cell-based, human. On the procedure: FIG. 4A: Jurkat T cells were treated by anti-cd3/anti-cd28/anti-mouse IgG (6 μg/mL) or PMA/Ion (10 ng/mL) for 24 h, IL-2 production in medium was measured by ELISA kit. FIG. 4B-E: Jurkat T cells were pretreated by IKK inhibitor (B), PKC inhibitor (C), CID-2858522 (D) for 2 h and then treated by anti-cd3/anti-cd28/anti-mouse IgG (6 μg/mL) or PMA/Ion (10 ng/mL) for 24 h, IL-2 production in medium was measured by ELISA kit; E, Jurkat cells were treated by CID-2858522, PKC inhibitor and IKK inhibitor for 24 h, cell viability was measured by ATPlite kit.
In T cells, the antigen receptor stimulates several signal transduction pathways that converge on the IL-2 gene promoter, including NF-κB, NF-AT, and AP-1. For evaluating the effects of CID-2858522 on TCR-initiated, NF-κB-driven events in lymphocytes, we employed Jurkat T-leukemia cells, which have been utilized extensively as model for studying TCR-signaling leading to IL-2 gene expression. For these experiments, Jurkat cells were stimulated with either anti-CD3 (to activate the TCR complex) and anti-CD28 (co-stimulator) or with PMA/Ionomycin, in the presence or absence of CID-2858522, IKK inhibitor, or PKC inhibitor, then IL-2 production was measured 24 hrs later in culture supernatants. […] In contrast, CID-2858522 suppressed IL-2 production by CD3/CD28- and PMA/Ionomycin-stimulated Jurkat cells by approximately half (IC50) at concentrations <10 μM (FIG. 4D).
Lymphokine measurements. Human IL-2 or IL-8 levels in culture medium were measured by Enzyme-Linked Immunosorbent Assays (ELISAs), using BD OptEIA ELISAs (BD Biosciences, San Diego, Calif.), according to the manufacturer's protocol, using 96-well ELISA plates (BD Biosciences) and measuring absorbance within 30 minutes of initiating reactions using a SpectraMax 190 spectrophotometer (Molecular Devices).
Background: An ELISA detects its analyte on a solid surface through an enzyme-linked reagent.

The test system of experiment [3] is anti-CD3/CD28-induced lymphocyte proliferation. Kind of experiment: Lymphocyte proliferation assay (3H-Thymidine), anti-CD3/CD28-stimulated splenocytes. Type of experiment: cell-based. The following applies: mouse splenocytes; for IC50: 3H-Thymidine incorporation, read-out: IC50, lymphocyte proliferation, T-cells (anti-CD3/CD28). The procedure:
(A) Isolated mouse primary splenocytes were cultured with anti-CD3/anti-CD28 (0.3 μg/mL each) or anti-IgM (3 μg/mL) for 48 h, then 1 μCi 3H-Thymidine was added for 12 h and incorporation into DNA was measured, expressing data as fold increase above unstimulated cells (mean±SD; n=3). (B-D) Primary splenocytes were pretreated for 2 h with IKK inhibitor, BMS-335541 (B), PKC inhibitor, Bisindolylmaleimide I (C) or CID-2858522 (D), then stimulated with anti-CD3/anti-CD28 (0.3 μg/mL) or anti-IgM (3 μg/mL) for 48 h. 1 μCi 3H-Thymidine was added for 12 h and incorporation into DNA was measured, expressing data as percent inhibition relative to control cells treated with DMSO (mean±SD; n=3). […] Levels of TRAF1 and β-actin were assessed by immunoblotting, quantified by densitometry and TRAF1 results reported relative to control cells, after normalization for β-actin (mean±SD). […] Then nuclear extracts were prepared and p65-DNA-binding activity was measured (mean±SD; n=3).
Lymphocyte proliferation assay. Splenocytes were isolated from normal Balb/c mice and red blood cells were removed using a mouse erythrocyte lysis kit (R&D Systems, Minneapolis, Minn.). Splenocytes were suspended in RMPI-1640 medium supplemented with 10% FBS, 1% penicillin-streptomycin, and 1 mM L-glutamine. Cells were diluted into 2×10^6 cells/mL and 200 μL were seeded in round bottom 96-well plates and incubated at 37° C. in 5% CO2 and 95% relative humidity. Cells were pretreated with compounds or DMSO diluted in medium for 2 h, then treated with anti-CD3/anti-CD28 or anti-IgM antibodies for 48 h, prior to adding 1 μCi [^3H]-Thymidine for (MP Biomedical, Solon, Ohio) 12 h. Cells were transferred to fiberglass filters (Wallac, Turku, Finland) using a FilterMate Harvester (Perkin Elmer), dried, and [^3H]-incorporation into DNA was quantified by scintillation counting Betaplate Scint (Perkin Elmer) and a MicroBetaTrilux LCS and luminescence counter (Perkin Elmer).
A general note: Uptake of a labelled nucleoside into DNA is a usual measure of proliferation.

Entries after “also recorded” stand apart in the source; their conditions may differ. Where two headings read alike, the source gives them in different places. Bounds are passed on as bounds.

As to `Cc1ccc2nc(NCCN)c3ncc(C)n3c2c1` [BMS-345541, reference compound], the “suppression of CD40-induced NF-κB reporter” value in experiment [1] is reported as “potently suppressed”. Moreover, in experiment [2] (Jurkat), the “suppression of PMA/Ionomycin-induced IL-2 production” value is on record as “partially suppressed”. In addition, the IC50 in experiment [3] (Lymphocyte) was approximately 4 µM.

As for `CN(C)CCCn1cc(C2=C(c3c[nH]c4ccccc34)C(=O)NC2=O)c2ccccc21` [Bisindolylmaleimide I, reference compound], in experiment [1], the “suppression of CD40-induced NF-κB reporter” value is on record as “not by CID-2858522 or by the PKC inhibitor”. In experiment [2] (PMA/Ionomycin Jurkat, PKC inhibitor <0.5 μM), the “suppression of IL-2 production” value is 80-90%. For the same compound, the IC50 in experiment [3] was 11.5 µM.

In the case of `Cc1cc2nc(NCCCO)n(CC(=O)c3cc(C(C)(C)C)c(O)c(C(C)(C)C)c3)c2cc1C` [Compound 1, 2-(2-(3-Hydroxypropylamino)-5,6-dimethyl-1H-benzo[d]imidazol-1-yl)-1-(3,5-di-tert-butyl-4-hydroxyphenyl)ethanone], the “suppression of CD40-induced NF-κB reporter” value in experiment [1] was “did not inhibit; also recorded: not by CID-2858522”. In addition, in experiment [2] (Homo sapiens, PMA/Ionomycin-stimulated Jurkat cells, 24 h, read-out: IC50, suppression of IL-2 production (by approximately half)), the IC50 is less than 10 µM. Further, in experiment [3], the “effect on anti-CD3/CD28-induced lymphocyte proliferation” value is given as “minimal effect”.
